In PubChem BioAssay AID493003 (Sanford-Burnham Center for Chemical Genomics, 2010):
The source made the active and inactive calls. No rule for the calls is given here.

System: S. cerevisiae tim10-1 mutant growth, luminescence
Assay: tim10-1 yeast growth inhibition potency – luminescence, S. cerevisiae, uHTS hits, dose response (AID 493003);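 also: yeast growth measured after about 22 hours at 25 °C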

SMILES	IC50
CC(C)Cn1c2c(c(O)c(C(=O)Nc3nccs3)c1=O)CCCC2	96.8 µM
CC(Oc1ccc(Cl)cc1Cl)C(=O)NC1=NN(c2ccccc2)C(=O)C1 (centres undefined)	15.2 µM
COc1ccc(OC)c(N=c2ssnc2Cl)c1	21 µM
COc1ccc(-c2nncnn2)cc1	8.84 µM
O=C(Nc1ccc(N2CCN(C(=O)c3cccs3)CC2)cc1)c1cccc(F)c1	40.5 µM
Cc1ccc(NC(=O)c2cc(S(=O)(=O)NCCC3=CCCCC3)ccc2F)cc1	10.8 µM
S=C(NN=C1C2CC3CC(C2)CC1C3)Nc1ccccc1	19.4 µM
COc1ccc(C(=O)O/N=C(\N)Cc2ccc(Cl)c(Cl)c2)cc1OC	0.76 µM
O=C(c1cccs1)c1c[nH]cc1-c1ccccc1	> 100 µM (inactive)
O=C(c1ccc2nc(N3CCCCC3)sc2c1)N1CCN(c2ccccn2)CC1	46.1 µM
CC(C)n1c(-c2ccco2)csc1=Nc1cccnc1	43 µM
O=C(COc1ccc(Cl)cc1Cl)Nc1ccc(S(=O)(=O)NC2=NCCCCC2)cc1	24.5 µM
Cn1c(N2CCOCC2)nc(-c2ccccc2)c1-c1ccccc1	22.9 µM
COc1cccc(N2[C@@H](CC(C)=O)c3ccc(/C=C/C(C)=O)cc3S2(=O)=O)c1	18.3 µM
Cc1cc(N/N=C/c2ccccc2O)nc(-c2ccccc2O)n1	76.6 µM
CCOC(=O)c1ccc(N2C(=O)CC(N3CCC(Nc4ccc(F)cc4)CC3)C2=O)cc1 (centres undefined)	55 µM
CC(C)c1ccc(S(=O)(=O)Nc2ccc(SC(F)F)cc2)cc1	45.9 µM
N#C/C(=C\c1ccccc1)C(=O)Nc1cc(S(=O)(=O)N2CCOCC2)ccc1N1CCCC1	31.3 µM
N/C(=C\C(=O)c1cc(Cl)ccc1O)C(Cl)(Cl)Cl	47.3 µM
CCOC(=O)Cc1csc(NC(=O)CSc2ccc(Br)cc2)n1	37.8 µM
CN(C)CCCN(C(=O)c1ccc(S(=O)(=O)N2CCc3ccccc3C2)cc1)c1nc2c(F)cc(F)cc2s1	35.2 µM
CCOc1ccccc1C(=O)Nc1cc(OC)ccc1OC	35.1 µM
CCc1c(C)c2c(C)nn(-c3ccccc3)c2oc1=O	17.2 µM

SMILES	IC50
COc1cc(/C=N/O)ccc1Oc1ccc([N+](=O)[O-])cc1[N+](=O)[O-]	24.4 µM
Cc1nn2c3ccccc3nc2c2ccccc12	77.1 µM
Oc1c(Cl)cc(Cl)cc1CNc1ccc(Br)cn1	33.2 µM
Cc1[nH]n(-c2ccccc2)c(=O)c1C(c1ccccc1[N+](=O)[O-])C(C#N)C#N (centres undefined)	18.2 µM
O=C(Nc1ccccc1Br)C1CC(=O)N(c2ccc3c4c(cccc24)CC3)C1 (centres undefined)	77.7 µM
Cc1ccc(-c2cc(-c3cccc(F)c3)n[nH]2)c(O)c1	40.4 µM
Cc1cccc(/C(N)=N/OC(=O)COc2ccc(Cl)cc2)c1	48.4 µM
O=C(/C=C/c1cccs1)c1cc(Br)ccc1OC(=O)N1CCOCC1	36.4 µM
CO/N=C/c1ccc(Sc2ccccc2N)c([N+](=O)[O-])c1	56.4 µM
COc1ccccc1N1CCN(CC(=O)Nc2ccc(Cl)c(C(F)(F)F)c2)CC1	58.7 µM
c1ccc(Nc2cccc(Nc3ccccc3)n2)cc1	14.2 µM
CCOc1ccccc1N1C(=O)CC(Sc2n[nH]c(-c3ccccc3)n2)C1=O (centres undefined)	10.6 µM
CCSc1ccc2c(c1)N(CCCN1CCN(C)CC1)c1ccccc1S2	24.9 µM
CCn1c(=S)sc2c(=O)n(-c3ccccc3)c(SC)nc21	68.4 µM
c1ccc(-c2csc3ncnc(-n4cnc5ccccc54)c23)cc1	15.8 µM
CCc1nn(-c2ccccc2)c(=S)c2ccccc12	22.8 µM
Cc1cc(/C=C\c2ccc3cc(N(C)C)ccc3[n+]2C)c(C)n1-c1ccccc1	9.45 µM
Cc1cccc(C2=NNC(=O)C(c3ccc(Cl)cc3)C2)c1 (centres undefined)	34 µM
CC(NC(=O)Nc1cccc([N+](=O)[O-])c1)(C(F)(F)F)C(F)(F)F	57.2 µM
Cc1ccc(F)c(NC(=O)c2c(-c3ccccc3)noc2C)c1	58.6 µM
N/C(=N\OC(=O)c1cccc2ccccc12)c1ccncc1	40.8 µM
CC(=O)/C(=N\Nc1ccc(Cl)cc1Cl)Sc1cccc2cccnc12	41.3 µM
Cc1nn(C)c(C)c1NC(=O)Nc1ccc(Cl)c(Cl)c1	22.4 µM

SMILES	IC50
Cc1nc(CN2CCN(S(=O)(=O)c3c(Cl)cc(Br)cc3Cl)CC2)cs1	18.6 µM
CCCc1cc(-c2n[nH]c(=S)n2-c2cccc(C)c2)cs1	37.5 µM
COC(=O)c1cc(NC(=S)Nc2cc(Cl)cc(Cl)c2)cc(C(=O)OC)c1	23 µM
N=c1c2c(-c3ccccc3)c(-c3ccccc3)n(Cc3ccccc3)c2ncn1CCO	23.8 µM
CCN(CC)CCN(C(=O)c1ccc2c(c1)CCCC2)c1nc2ccc(OC)cc2s1	22 µM
Cc1ccc(NC(=O)c2ccc(Cl)c(N3C(=O)C=CC3=O)c2)cc1	8.63 µM
Nc1ccc2oc(-c3cccc(Br)c3)nc2c1	28.3 µM
COc1cccc(/C=N/n2c(C3CCCCC3)n[nH]c2=S)c1O	32.3 µM
Cc1ccc(NC(=S)NCc2ccc3[nH]c4c(c3c2)CCCC4)cc1	22.1 µM
COc1ccc(Sc2cnn(-c3ccccc3)c(=O)c2Cl)cc1	35.6 µM
O=S(=O)(NCCNc1ncc(C(F)(F)F)cc1Cl)C(F)(F)F	26.6 µM
O=C(CS(=O)(=O)c1ccccc1)Nc1nc(-c2ccccc2)cs1	24.2 µM
COc1ccc(NC2CCN(C3CC(=O)N(c4ccc(F)c(Cl)c4)C3=O)CC2)cc1 (centres undefined)	10.4 µM
COc1ccc(-n2c(CNc3ccc(C)cc3)nnc2SCc2ccccc2)cc1	26.4 µM
O=S(=O)(c1ccc(N2CCC(c3ccc(Cl)cc3)=N2)cc1)N(CCO)CCO	20.7 µM
C/C(CC(=O)Nc1ccc(N(C)C)cc1)=N\NC(=O)c1ccccn1	54.5 µM
O=c1oc2ccccc2c(O)c1/C=C1\C=Nc2ccccc21	6.24 µM
N/C(=N\S(=O)(=O)c1cc(C(F)(F)F)cc(C(F)(F)F)c1)c1ccc(Cl)cc1	49.7 µM
COc1cc(N=c2ssnc2Cl)c(OC)cc1Cl	13 µM
CC(=O)OC[C@]12CCC(C)=C[C@H]1O[C@@H]1[C@H](O)[C@@H](OC(C)=O)[C@@]2(C)[C@]12CO2	30.8 µM
COc1cc2c(cc1OC)CN(C(=O)c1ccc(-c3ccccc3)cc1)CC2	47.3 µM
N/C(=N\OC(=O)c1cccnc1)c1ccc(Cl)cc1Cl	17.8 µM
S=C(NCCc1ccccc1)Nc1ccc(Nc2ccccc2)cc1	24.7 µM

SMILES	IC50
O=[N+]([O-])/C(C(Cl)=C(Cl)Cl)=C(\Sc1ccccc1)N1CCCCC1	53 µM
Cc1ccc(N2C(=O)CC(Sc3cccs3)C2=O)cc1 (centres undefined)	24 µM
Cc1cccc(Oc2cc(NC(=O)c3ccccc3)cc([N+](=O)[O-])c2)c1	20.4 µM
CCCn1c(CC)nc([N+](=O)[O-])c1S(=O)(=O)c1ccccc1	13.1 µM
O=C(NC(=S)Nc1ccccc1N1CCCC1)c1ccc([N+](=O)[O-])cc1	14 µM
Cn1c(CSc2nnc(SCc3ccccc3)s2)nc2ccccc21	19.6 µM
Cn1c(NCCCO)nc2c(c1=O)C1(CCCCC1)Cc1ccccc1-2	12.3 µM
CN=C(Nc1cc(Cl)ccc1Cl)SC1CC(=O)N(c2ccc(C(=O)OC)cc2)C1=O (centres undefined)	12.6 µM
CCOC(=O)N1CCN(C(=O)c2ccc(CSc3ccc(Cl)cc3)cc2)CC1	74.1 µM
O=C(CN1CCN(S(=O)(=O)c2ccc3ccccc3c2)CC1)Nc1ccc2c(c1)CCC2	36.6 µM
Cc1nn(Cc2c(F)c(F)c(F)c(F)c2F)c(C)c1NC(=O)c1ccc(COc2ccccc2Cl)o1	60.3 µM
CC(/C=N/Nc1nc(C)cc(C)n1)=C\c1ccc(C(C)C)cc1	39.1 µM
Cc1ccc(-c2csc(-c3c[nH]c4ccccc34)n2)cc1	25.4 µM
O=[N+]([O-])c1cc(/C=N/O)ccc1Oc1ccccc1Cl	33.9 µM
Cn1c2ccccc2c(=O)c2ccc(C#CC3(O)CCCCC3)cc21	24.5 µM
CC(C)c1nnc(NC(=O)CCS(=O)(=O)c2nc(-c3cccs3)cc(C(F)(F)F)n2)s1	11.9 µM
OC(COc1ccc2ccccc2c1Br)Cn1cnc(-c2ccccc2)c1 (centres undefined)	18.1 µM
C=CCn1c(SCc2c(F)cccc2Cl)nnc1-c1ccco1	34.8 µM
Cc1cc(NC(=O)C2CC2)ncc1NC(=O)C12CC3CC(CC(C3)C1)C2	> 100 µM (inactive)
Cc1cccc(C(=O)CC(=O)c2cc(Cl)ccc2O)c1	19 µM
C=CCN(C(=O)c1cccc(S(=O)(=O)N2CCN(C)CC2)c1)c1nc(-c2ccccc2)cs1	46.8 µM
CCc1ccc(NC(=S)N(Cc2ccccc2)Cc2ccccn2)cc1	38 µM
O=C(CN1CCN(S(=O)(=O)c2ccc(Br)cc2)CC1)N/N=C/c1ccc(Br)s1	43 µM

SMILES	IC50
CN1CCN(c2cc(N3CCc4ccccc4C3)c(F)cc2[N+](=O)[O-])CC1	71.6 µM
Cc1ccc2nc(C)c(C(=O)N/N=C/c3cccc([N+](=O)[O-])c3)cc2c1	25.8 µM
CCCN1C(=O)/C(=N\OCC(=O)Nc2ccc(C(C)C)cc2)c2ccccc21	60.9 µM
C=CCN(CC=C)S(=O)(=O)c1ccc(NC(=O)COc2ccccc2OC)cc1	77.3 µM
O=C(NNC(=S)Nc1cccc(C(F)(F)F)c1)c1cccc(Cl)c1	10 µM
Cc1cc(N)n2ncc(-c3ccc(F)cc3)c2n1	36 µM
COc1ccc(C2NC(=S)NC3=C2CCc2cc(OC)ccc23)cc1 (centres undefined)	36.7 µM
Fc1cc(F)cc(Nc2nc(Cl)nc(NC3CCCC3)n2)c1	37.7 µM
O=C(c1cc(COc2ccc(F)cc2Cl)on1)N1CCN(c2cnccn2)CC1	11.7 µM
O=C(CN1CCN(S(=O)(=O)c2ccc(Cl)cc2)CC1)Nc1ccc2c(c1)CCC2	25.3 µM
Cc1cccc(Nc2ncccc2C(=O)NCc2cccs2)c1C	53.3 µM
Cc1nn(Cc2c(F)c(F)c(F)c(F)c2F)c(C)c1NC(=O)c1ccc(COc2ccc(Cl)cc2Cl)o1	25.5 µM
CNC(=O)c1ccsc1NC(=O)c1ccc(Cl)s1	64.7 µM
Cc1sc2ncnc(Oc3ccc(-n4ccnc4)cc3)c2c1C	46 µM
O=[N+]([O-])/C(C(Cl)=C(Cl)Cl)=C(/Sc1ccccc1)N1CCCCC1	38.7 µM
CN(C)S(=O)(=O)c1cccc(NC(=O)COc2cccc3ccccc23)c1	> 100 µM (inactive)
C=CCNc1nc(-c2ccccn2)nnc1-c1ccccc1	29.3 µM
CN1CCCN(C(c2ccccc2)c2ccc(Cl)cc2)CC1 (centres undefined)	30.9 µM
CCOC(=O)c1c(OCC)[nH]c2c1cc(O)c1ccccc12	17.9 µM
c1ccc(-c2cc(-c3nc4ccccc4[nH]3)c3ccccc3n2)cc1	49.6 µM
CC1CCCCN1S(=O)(=O)c1ccc(NC(=O)c2ccco2)cc1 (centres undefined)	22.7 µM
O=C(CCNc1ccc(Cc2ccncc2)cc1)c1cccc([N+](=O)[O-])c1	49.2 µM
